Target: T1, RALA (Homo sapiens, UniProt P11233)
T1 construct: recombinant RALA, site-specifically biotinylated on the N-terminus
T1 sequence (P11233 1-203): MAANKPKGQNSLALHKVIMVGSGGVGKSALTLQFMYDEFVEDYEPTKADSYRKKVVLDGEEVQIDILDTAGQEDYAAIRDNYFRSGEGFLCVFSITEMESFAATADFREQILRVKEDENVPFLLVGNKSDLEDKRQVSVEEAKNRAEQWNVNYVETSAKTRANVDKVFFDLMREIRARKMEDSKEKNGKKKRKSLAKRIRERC
Assay: SPR (Biacore 8K, steady-state affinity, biotinylated RALA on SA chip)
Format: binding

- Kd: 0.948 µM
Substance: OSURALi

Source: publication PMC11394424, “The RAL Small G Proteins Are Clinically Relevant Targets in Triple Negative Breast Cancer” (Cancers, 2024)
